Holding throughout (assay type): cell-based
For test [1], the target named is T1, human cloned CHRM3 receptor (M3_CHO cells) (Homo sapiens, UniProt P20309).
T1 construct: expressed in transfected cells; host or cells: CHO-K1
Put plainly: CHRM3 Ca++ Flux Assay (agonist mode, FDSS 7000EX). The settings on record: for Emax: Percent Activity measured to EC100 of Carbachol, read-out: M3 FDSS PA; for EC50: agonist mode, geometric mean if tested more than once, read-out: M3 FDSS EC50. An outline of the steps:
(§1)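 Agonist responses are measured as calcium mobilization in CHO-K1 cells expressing human M3 or M5, tested over an 11-point dose range in triplicate. Percent activity is normalised to carbachol at EC100.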

Test [2] addresses T2, human cloned CHRM5 receptor (M5_CHO) (Homo sapiens, UniProt P08912).
T2 construct: expressed in transfected cells; host or cells: CHO (M5_CHO)
T2 sequence (P08912 1-532): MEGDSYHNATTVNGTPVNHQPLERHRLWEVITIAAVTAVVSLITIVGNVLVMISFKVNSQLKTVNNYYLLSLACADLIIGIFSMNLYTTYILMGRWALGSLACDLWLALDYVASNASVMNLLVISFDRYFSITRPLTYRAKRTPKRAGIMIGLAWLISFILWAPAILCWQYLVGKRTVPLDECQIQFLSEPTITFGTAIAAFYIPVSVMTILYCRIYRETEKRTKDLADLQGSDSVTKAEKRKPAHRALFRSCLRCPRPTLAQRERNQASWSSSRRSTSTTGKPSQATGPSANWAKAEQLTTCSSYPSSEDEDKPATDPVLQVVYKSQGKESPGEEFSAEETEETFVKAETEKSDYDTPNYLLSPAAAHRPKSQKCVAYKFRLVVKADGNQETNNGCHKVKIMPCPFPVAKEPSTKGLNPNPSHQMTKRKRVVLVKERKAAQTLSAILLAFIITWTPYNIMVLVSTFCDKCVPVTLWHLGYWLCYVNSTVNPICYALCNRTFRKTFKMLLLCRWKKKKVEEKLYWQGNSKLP
Description: CHRM5 Ca++ Flux Assay (agonist mode, FDSS 7000EX). The settings on record: for Emax: Percent Activity measured to EC100 of Carbachol, read-out: M5 FDSS PA; for EC50: agonist mode, geometric mean if tested more than once, read-out: M5 FDSS EC50. An outline of the steps: as §1

Test [3] addresses T3, human cloned CHRM2 receptor (M2_CHO cells) (Homo sapiens, UniProt P08172).
T3 construct: expressed in transfected cells; host or cells: CHO-K1
T3 sequence (P08172 1-466): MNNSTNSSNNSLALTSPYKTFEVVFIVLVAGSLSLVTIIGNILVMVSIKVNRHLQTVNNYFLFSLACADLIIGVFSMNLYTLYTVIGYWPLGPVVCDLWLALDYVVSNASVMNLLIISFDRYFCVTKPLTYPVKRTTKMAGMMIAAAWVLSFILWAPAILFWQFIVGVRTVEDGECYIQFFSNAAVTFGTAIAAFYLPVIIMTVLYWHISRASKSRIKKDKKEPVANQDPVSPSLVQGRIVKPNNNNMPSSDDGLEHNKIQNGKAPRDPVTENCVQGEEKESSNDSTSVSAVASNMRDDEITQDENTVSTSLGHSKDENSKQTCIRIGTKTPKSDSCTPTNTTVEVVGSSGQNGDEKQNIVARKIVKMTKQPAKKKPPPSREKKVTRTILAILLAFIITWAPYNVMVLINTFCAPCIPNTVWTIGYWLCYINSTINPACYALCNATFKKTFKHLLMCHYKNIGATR
Description: CHRM2 Ca++ Flux Assay (agonist mode, FDSS 7000EX). To be noted: for Emax: Percent Activity measured to EC100 of Carbachol, read-out: M2 FDSS PA; for EC50: agonist mode, geometric mean if tested more than once, read-out: M2 FDSS EC50. Summed up:
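Response expressed as percent activity versus the Carbachol EC100, with curves fitted by four-parameter non-linear regression of triplicates. Stable M2_CHO cells were Ca++ dye-loaded and preincubated 60 min at room temperature in assay buffer containing 20 μM ATP; signal imaged for 3 minutes after compound.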

Structures are written as SMILES. Bounds are passed on as bounds.

T1 sequence (P20309 whole entry): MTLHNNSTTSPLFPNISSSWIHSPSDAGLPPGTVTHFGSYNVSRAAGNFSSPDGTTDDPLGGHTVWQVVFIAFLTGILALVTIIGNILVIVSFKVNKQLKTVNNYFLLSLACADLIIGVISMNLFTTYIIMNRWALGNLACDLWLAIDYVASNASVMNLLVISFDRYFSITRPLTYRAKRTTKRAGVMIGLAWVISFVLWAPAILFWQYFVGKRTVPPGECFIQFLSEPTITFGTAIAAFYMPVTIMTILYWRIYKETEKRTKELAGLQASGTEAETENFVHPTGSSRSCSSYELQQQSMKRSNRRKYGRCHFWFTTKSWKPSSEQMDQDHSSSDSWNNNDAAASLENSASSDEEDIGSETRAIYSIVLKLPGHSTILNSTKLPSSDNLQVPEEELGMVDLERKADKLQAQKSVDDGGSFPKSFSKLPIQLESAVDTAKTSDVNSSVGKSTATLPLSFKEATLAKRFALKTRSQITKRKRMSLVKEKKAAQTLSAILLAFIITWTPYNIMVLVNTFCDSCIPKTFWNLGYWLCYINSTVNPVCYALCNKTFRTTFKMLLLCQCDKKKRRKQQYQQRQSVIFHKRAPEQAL

As a reminder, the EC50 is the midpoint of the concentration-response curve. In the case of `Fc1ccc(C2CCOC2)c(C2CCN([C@@H]3CCC4(C3)CN(c3nnco3)C4)CC2)c1` (mixture of isomers) [Example 2J, 2-((6R)-6-(4-(5-fluoro-2-(tetrahydrofuran-3-yl)phenyl)piperidin-1-yl)-2-azaspiro[3.4]octan-2-yl)-1,3,4-oxadiazole], the results for the Emax in test [1], in test [2] and in test [3] were 0%, 0% and 37%, respectively. For the same compound, the EC50 in test [1] was over 25 µM; in test [2], over 25 µM; in test [3], 0.036 µM.
On to `O=C(C1COC1)N1CC2(CC[C@H](N3CCC(c4ccccc4OC(F)(F)F)CC3)C2)C1` (single isomer, unassigned) [Example 8G], for which the Emax in test [1], in test [2] and in test [3] was 0% each time. The EC50 in test [1] and in test [2] was over 25 µM in each case.
On to `O=C(N1CC2(CC[C@H](N3CCC(c4ccccc4C4CCOCC4)CC3)C2)C1)C1(F)CC1` (single isomer, unassigned) [Example 9M], for which the Emax in test [1], in test [2] and in test [3] was 0% in each case. In addition, the EC50 in test [1] and in test [2] was over 25 µM in each case.
With `c1ccc(C2CCN([C@H]3CCC4(C3)CN(c3nnco3)C4)CC2)c(C2CCOCC2)c1` (single isomer, unassigned) [Example 10T], the Emax in test [1], in test [2] and in test [3] was 0% in each case. Also, the EC50 in test [1] and in test [2] was over 25 µM in each case.
`c1ccc(C2CCN([C@@H]3CCC4(C3)CN(c3nnco3)C4)CC2)c(OC2CC3(COC3)C2)c1` [Example 1A, (R)-2-(6-(4-(2-((2-oxaspiro[3.3]heptan-6-yl)oxy)phenyl)piperidin-1-yl)-2-azaspiro[3.4]octan-2-yl)-1,3,4-oxadiazole]: the Emax in test [1], in test [2] and in test [3] was 0% in each case. The EC50 in test [1] and in test [2] was over 25 µM each time.
As for `c1ccc(C2CCN([C@@H]3CCC4(C3)CN(c3nnco3)C4)CC2)c(OC2COC2)c1` [Example 1D, (R)-2-(6-(4-(2-(oxetan-3-yloxy)phenyl)piperidin-1-yl)-2-azaspiro[3.4]octan-2-yl)-1,3,4-oxadiazole], the Emax in test [1] worked out at 0%; in test [2], 0%; in test [3] it was 40%. Further, the results for the concentration giving a half-maximal response (EC50) in test [1], in test [2] and in test [3] were over 25 µM, 4.39 µM and 0.035 µM, respectively.
Turning to `c1ccc(C2CCN([C@@H]3CCC4(C3)CN(c3nnco3)C4)CC2)c(OC[C@@H]2COCCO2)c1` [Example 1E, 2-((R)-6-(4-(2-(((S)-1,4-dioxan-2-yl)methoxy)phenyl)piperidin-1-yl)-2-azaspiro[3.4]octan-2-yl)-1,3,4-oxadiazole], the Emax in test [1] is 0%; in test [2] it was 0%; in test [3] it was 14%. Further, the EC50 in test [1] is over 25 µM; in test [2], over 25 µM; in test [3], 0.021 µM.
Turning to `CC(C)(O)CCOc1ccccc1C1CCN([C@@H]2CCC3(C2)CN(c2nnco2)C3)CC1` [Example 1F], the Emax in test [1], in test [2] and in test [3] was 0% each time. In addition, the EC50 in test [1] and in test [2] was over 25 µM throughout.
Consider `c1ccc(C2CCN([C@@H]3CCC4(C3)CN(c3nncs3)C4)CC2)c(OCC2COC2)c1` [Example 1G, (R)-2-(6-(4-(2-(oxetan-3-ylmethoxy)phenyl)piperidin-1-yl)-2-azaspiro[3.4]octan-2-yl)-1,3,4-thiadiazole], for which the results for the Emax in test [1], in test [2] and in test [3] were 0%, 0% and 38%, respectively. Moreover, the EC50 was over 25 µM in test [1], over 25 µM in test [2] and 0.075 µM in test [3].
Turning to `FC1(COc2ccccc2C2CCN([C@@H]3CCC4(C3)CN(c3nncs3)C4)CC2)COC1` [Example 1H, (R)-2-(6-(4-(2-((3-fluorooxetan-3-yl)methoxy)phenyl)piperidin-1-yl)-2-azaspiro[3.4]octan-2-yl)-1,3,4-thiadiazole], the Emax in test [1] came out at 0%; in test [2] it was 10%; in test [3], 41%. In addition, the EC50 in test [1] is over 25 µM; in test [2] it was 2.02 µM; in test [3] it was 0.03 µM.
As to `c1ccc(C2CCN([C@@H]3CCC4(C3)CN(c3nncs3)C4)CC2)c(OCC2CCOCC2)c1` [Example 1I, (R)-2-(6-(4-(2-((tetrahydro-2H-pyran-4-yl)methoxy)phenyl)piperidin-1-yl)-2-azaspiro[3.4]octan-2-yl)-1,3,4-thiadiazole], the values for the Emax in test [1], in test [2] and in test [3] were 0%, 0% and 28%, respectively. Moreover, the EC50 in test [1] was over 25 µM; in test [2], over 25 µM; in test [3], 0.092 µM.
With `FC1(COc2ccccc2C2CCN([C@@H]3CCC4(C3)CN(c3nncs3)C4)CC2)CCOCC1` [Example 1J, (R)-2-(6-(4-(2-((4-fluorotetrahydro-2H-pyran-4-yl)methoxy)phenyl)piperidin-1-yl)-2-azaspiro[3.4]octan-2-yl)-1,3,4-thiadiazole], the Emax in test [1] came to 0%; in test [2] it was 0%; in test [3], 72%. Besides, the EC50 in test [1] was over 25 µM; in test [2], over 25 µM; in test [3] it was 0.051 µM.
Take `c1ccc(C2CCN([C@@H]3CCC4(C3)CN(c3cncnc3)C4)CC2)c(OC2COC2)c1` [Example 1K, (R)-6-(4-(2-(oxetan-3-yloxy)phenyl)piperidin-1-yl)-2-(pyrimidin-5-yl)-2-azaspiro[3.4]octane]: the values for the Emax in test [1], in test [2] and in test [3] were 0%, 0% and 19%, respectively. Besides, the results for the EC50 in test [1], in test [2] and in test [3] were over 25 µM, over 25 µM and 0.029 µM, respectively.
Take `c1ccc(C2CCN([C@@H]3CCC4(C3)CN(c3cncnc3)C4)CC2)c(OC2CCOCC2)c1` [Example 1L, (R)-2-(pyrimidin-5-yl)-6-(4-(2-((tetrahydro-2H-pyran-4-yl)oxy)phenyl)piperidin-1-yl)-2-azaspiro[3.4]octane]: the Emax in test [1] was 0%; in test [2], 0%; in test [3], 28%. The figures for the EC50 in test [1], in test [2] and in test [3] were over 25 µM, over 25 µM and 0.214 µM, respectively.
In the case of `c1ccc(C2CCN([C@@H]3CCC4(C3)CN(c3cncnc3)C4)CC2)c(OCC2CCOCC2)c1` [Example 1M, (R)-2-(pyrimidin-5-yl)-6-(4-(2-((tetrahydro-2H-pyran-4-yl)methoxy)phenyl)piperidin-1-yl)-2-azaspiro[3.4]octane], the values for the Emax in test [1], in test [2] and in test [3] were 0%, 0% and 30%, respectively. Besides, the EC50 in test [1] was over 25 µM; in test [2], over 25 µM; in test [3] it was 0.402 µM.
As to `c1ccc(C2CCN([C@@H]3CCC4(C3)CN(c3cncnc3)C4)CC2)c(OCC2COC2)c1` [Example 1N, (R)-6-(4-(2-(oxetan-3-ylmethoxy)phenyl)piperidin-1-yl)-2-(pyrimidin-5-yl)-2-azaspiro[3.4]octane], the Emax in test [1] was determined as 0%; in test [2] it was 0%; in test [3], 10%. The figures for the EC50 in test [1], in test [2] and in test [3] were over 25 µM, over 25 µM and 0.007 µM, respectively.

Source of the values: patent US12122761B2, “2-azaspiro[3.4]octane derivatives as M4 agonists” (NOVARTIS AG, priority 2019, dated 2024).
